# In PubChem BioAssay (NCI):
# “And” between values parts separate entries of the source, which are not always exact repeats. Equal entries are not always repeated.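 96-well plates; 48 h exposure; 5 concentrations. Endpoints by linear interpolation between flanking doses. Not reached: highest tested concentration assigned. At the GI50, growth is halved. TGI: total growth inhibition.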
# Tested on: ACHN renal
# Experiment: inhibition of tumour cell growth, NCI panel, 48 h
SMILES,GI50 [µM],TGI
Clc1cc2c(c(CSc3nc4ccccc4n4cccc34)c1)OCOC2,67.3,> 100 µM
CN1CCN(c2ccc(Nc3cc(-c4cccc(-n5ccc6cc(C7CC7)cc(F)c6c5=O)c4CO)cn(C)c3=O)nc2)CC1,1.84,3.76 µM
COc1ccc2nc3ccccc3c(NCc3ccc(F)cc3)c2c1,1.82,6.68 µM
CCn1c(O)c(/C=N/NC(=O)C(C)c2ccc(CC(C)C)cc2)sc1=S (centres undefined),0.813,> 38.8 µM
C[C@@H]1C[C@@H]([C@@H](CC2CC(=O)NC(=O)C2)OC(=O)CC(=O)c2ccccc2)C(=O)[C@@H](C)C1,0.0777,> 100 µM
CCOC(=O)Nc1cc2c(c(N)n1)N=C(c1ccccc1)CO2,0.986,31.7 µM
CC1CC2CCCC(O)=C2C(=O)O1 (centres undefined),–,> 100 µM
CC(C)(/C=C(\C#N)C(=O)N1CCC[C@@H](n2nc(-c3ccc(Oc4ccccc4)cc3F)c3c(N)ncnc32)C1)N1CCN(C2COC2)CC1,4.53,17.1 µM
O=c1oc2ccc(-c3ccc(F)cc3F)cc2c(=O)n1-c1cccc(C(F)(F)F)c1,2.25,8.37 µM
COC(=O)c1ccc2c(c1)C(=O)c1c-2n(CCCN=[N+]=[N-])c(=O)c2cc(OC)c(OC)cc12,> 100,> 100 µM
O=C(Cc1ccc(F)c(Cl)c1)Nc1cc(C2(C(F)(F)F)CC2)nn1CC1CCCCC1,4.22,13.9 µM
NNC(=O)CNc1cccc(Br)c1,–,> 100 µM
NC(N)=NCCCC(=O)O,–,> 100 µM
CCCC(=O)Nc1cn(COC)c(C(=O)N2C[C@@H]3C[C@]34C2=CC(=O)c2[nH]cc(C)c24)n1,2.16,50 µM and 6.82 µM
CNCCOC(=O)/C=C1\CC[C@H]2[C@@H]([C@@H](O)C(=O)[C@@H]3[C@]2(C)CC[C@H](O)[C@]3(C)C(=O)OC)[C@H]1C,0.25,0.785 µM
Cc1nnc(Nc2ccc(NC(=O)Nc3ccc(Cl)cc3)cc2)c2ccccc12,1.84,3.69 µM
CC(=O)ON1CCCC(P(=O)(OCCSC(=O)C(C)(C)C)OCCSC(=O)C(C)(C)C)C1=O (centres undefined),1.75,30.4 µM
COC(=O)[C@]12CC[C@@H](C)[C@H](C)[C@@H]1C1=CC[C@@H]3[C@@]4(C)C[C@@H](O)[C@H](O)[C@@](C)(CO)C4=CC[C@@]3(C)[C@]1(C)CC2,17.7,33.8 µM
COc1ccc(C(=O)Nc2ccc(O)c(=O)cc2)cc1,–,59.8 µM
Cc1nc(N)sc1N=Nc1ccccc1Br,–,> 86 µM
NS(=O)(=O)c1ccc(N=Nc2c(O)c(C(=O)O)cc3ccccc23)cc1,–,> 100 µM
Cc1c(N(C)C)ccc2c(=O)c3cccc(CC(=O)O)c3oc12,–,> 100 µM
CC(NCCC(c1ccccc1)c1ccccc1)c1ccccc1 (centres undefined),3.32,12 µM
C/C(N=NC(=S)N1CC2CCC(CC2)C1)=C1\C=CC=CN1O,–,30.7 µM
O=C(Nc1ccc(Br)cc1F)c1cc(Cl)ccc1O,0.619,> 31.3 µM
NC(N)=N/N=C/c1c(Cl)cccc1Cl,25.4,> 100 µM
S=c1[nH]c(=S)c2cc3ccccc3nc2[nH]1,> 100,> 100 µM

# Tested on: COLO 205 colon
# Experiment: inhibition of tumour cell growth, NCI panel, 48 h
SMILES,GI50 [µM],TGI
Clc1cc2c(c(CSc3nc4ccccc4n4cccc34)c1)OCOC2,> 100,> 100 µM
CN1CCN(c2ccc(Nc3cc(-c4cccc(-n5ccc6cc(C7CC7)cc(F)c6c5=O)c4CO)cn(C)c3=O)nc2)CC1,2.22,5.72 µM
COc1ccc2nc3ccccc3c(NCc3ccc(F)cc3)c2c1,1.11,2.78 µM
CCn1c(O)c(/C=N/NC(=O)C(C)c2ccc(CC(C)C)cc2)sc1=S (centres undefined),1.23,9.04 µM
C[C@@H]1C[C@@H]([C@@H](CC2CC(=O)NC(=O)C2)OC(=O)CC(=O)c2ccccc2)C(=O)[C@@H](C)C1,0.849,> 100 µM
CCOC(=O)Nc1cc2c(c(N)n1)N=C(c1ccccc1)CO2,0.102,0.885 µM
CC1CC2CCCC(O)=C2C(=O)O1 (centres undefined),–,> 100 µM
CC(C)(/C=C(\C#N)C(=O)N1CCC[C@@H](n2nc(-c3ccc(Oc4ccccc4)cc3F)c3c(N)ncnc32)C1)N1CCN(C2COC2)CC1,5.71,24.3 µM
O=c1oc2ccc(-c3ccc(F)cc3F)cc2c(=O)n1-c1cccc(C(F)(F)F)c1,10.4,24.7 µM
COC(=O)c1ccc2c(c1)C(=O)c1c-2n(CCCN=[N+]=[N-])c(=O)c2cc(OC)c(OC)cc12,> 100,> 100 µM
O=C(Cc1ccc(F)c(Cl)c1)Nc1cc(C2(C(F)(F)F)CC2)nn1CC1CCCCC1,2.59,5.41 µM
NNC(=O)CNc1cccc(Br)c1,–,> 100 µM
NC(N)=NCCCC(=O)O,–,> 100 µM
CCCC(=O)Nc1cn(COC)c(C(=O)N2C[C@@H]3C[C@]34C2=CC(=O)c2[nH]cc(C)c24)n1,6.31,16.6 µM and 23.7 µM
CNCCOC(=O)/C=C1\CC[C@H]2[C@@H]([C@@H](O)C(=O)[C@@H]3[C@]2(C)CC[C@H](O)[C@]3(C)C(=O)OC)[C@H]1C,1.55,3.04 µM
Cc1nnc(Nc2ccc(NC(=O)Nc3ccc(Cl)cc3)cc2)c2ccccc12,2.22,5.29 µM
CC(=O)ON1CCCC(P(=O)(OCCSC(=O)C(C)(C)C)OCCSC(=O)C(C)(C)C)C1=O (centres undefined),3.88,> 100 µM
COC(=O)[C@]12CC[C@@H](C)[C@H](C)[C@@H]1C1=CC[C@@H]3[C@@]4(C)C[C@@H](O)[C@H](O)[C@@](C)(CO)C4=CC[C@@]3(C)[C@]1(C)CC2,17.9,34.4 µM
COc1ccc(C(=O)Nc2ccc(O)c(=O)cc2)cc1,–,57 µM
Cc1nc(N)sc1N=Nc1ccccc1Br,–,> 93 µM
NS(=O)(=O)c1ccc(N=Nc2c(O)c(C(=O)O)cc3ccccc23)cc1,–,> 84.2 µM
Cc1c(N(C)C)ccc2c(=O)c3cccc(CC(=O)O)c3oc12,–,> 100 µM
CC(NCCC(c1ccccc1)c1ccccc1)c1ccccc1 (centres undefined),1.53,2.85 µM
C/C(N=NC(=S)N1CC2CCC(CC2)C1)=C1\C=CC=CN1O,–,38.4 µM
O=C(Nc1ccc(Br)cc1F)c1cc(Cl)ccc1O,2.74,8.2 µM
NC(N)=N/N=C/c1c(Cl)cccc1Cl,17.2,32.1 µM
S=c1[nH]c(=S)c2cc3ccccc3nc2[nH]1,20.3,> 100 µM

# Tested on: EKVX NSCLC
# Experiment: inhibition of tumour cell growth, NCI panel, 48 h
SMILES,GI50 [µM],TGI [µM]
Clc1cc2c(c(CSc3nc4ccccc4n4cccc34)c1)OCOC2,29.6,> 100
CN1CCN(c2ccc(Nc3cc(-c4cccc(-n5ccc6cc(C7CC7)cc(F)c6c5=O)c4CO)cn(C)c3=O)nc2)CC1,2.62,9.11
COc1ccc2nc3ccccc3c(NCc3ccc(F)cc3)c2c1,2.16,7.95
CCn1c(O)c(/C=N/NC(=O)C(C)c2ccc(CC(C)C)cc2)sc1=S (centres undefined),0.596,> 46
C[C@@H]1C[C@@H]([C@@H](CC2CC(=O)NC(=O)C2)OC(=O)CC(=O)c2ccccc2)C(=O)[C@@H](C)C1,0.495,–
CCOC(=O)Nc1cc2c(c(N)n1)N=C(c1ccccc1)CO2,0.409,> 46
CC1CC2CCCC(O)=C2C(=O)O1 (centres undefined),–,> 100
CC(C)(/C=C(\C#N)C(=O)N1CCC[C@@H](n2nc(-c3ccc(Oc4ccccc4)cc3F)c3c(N)ncnc32)C1)N1CCN(C2COC2)CC1,6.03,19.2
O=c1oc2ccc(-c3ccc(F)cc3F)cc2c(=O)n1-c1cccc(C(F)(F)F)c1,2.16,> 100
COC(=O)c1ccc2c(c1)C(=O)c1c-2n(CCCN=[N+]=[N-])c(=O)c2cc(OC)c(OC)cc12,> 100,> 100
O=C(Cc1ccc(F)c(Cl)c1)Nc1cc(C2(C(F)(F)F)CC2)nn1CC1CCCCC1,2.55,12.6
NNC(=O)CNc1cccc(Br)c1,–,> 100
NC(N)=NCCCC(=O)O,–,> 100
